Measurements: patent US20100063020A1, “ORAL PHARMACEUTICAL FORMULATIONS AND METHODS FOR PRODUCING AND USING SAME” (priority 2004, published 2010)

Tests used:
[1] = Solvent stability of low melt form (slurry in H2O:EtOH 90:10); type: physicochemical
Protocol: 17-AAG may be prepared from geldanamycin by reacting with allyamine in dry THF under a nitrogen atmosphere. The crude product may be purified by slurrying in H2O:EtOH (90:10), and the washed crystals obtained have a melting point of 206-212° C. by capillary melting point technique. […] The two 17-AAG products are designated as the low melt form and high melt form.
MP=147-155° C. ^1 H NMR and HPLC are consistent with the desired product.

[2] = Intrinsic dissolution of high melt and low melt forms of 17-AAG in ethanol; type: physicochemical
Protocol: The performance of an active pharmaceutical ingredient (i.e., dissolution rate) can be affected by polymorphic state. The intrinsic dissolution of the high melt and low melt forms of 17-AAG were determined in ethanol. Ethanol was chosen as the solvent since 17-AAG is soluble in ethanol.

[3] = in vitro; type: in vitro ADME; conditions: human, Caco-2
Description: The permeability of the pharmaceutical active ingredient across the gastrointestinal membrane may be estimated from it permeability across a Caco-2 cell monolayer using standard techniques (e.g. Chong S et al. Pharmaceutical Research 1997 14(12):1835-1837). The reference is hereby expressly incorporated by reference.
Propranolol was included in each assay as a high permeability control compound.

Row | SMILES | conversion of polymorphic form on slurrying [1] | intrinsic dissolution rate [2] [mg/cm^2/min] | percent higher intrinsic dissolution rate of low melt form vs high melt form [2] [%] | Papp [3] [×10⁻⁶ cm/s]
1 | C=CCNC1=C2C[C@@H](C)C[C@H](OC)[C@H](O)[C@@H](C)/C=C(\C)[C@H](OC(N)=O)[C@@H](OC)/C=C\C=C(/C)C(=O)NC(=CC1=O)C2=O [low melt form of 17-AAG, 17-allylamino-17-demethoxygeldanamycin] | no conversion to the high melt form was observed | 0.885 | 60 | –
2 | C=CCNC1=C2C[C@@H](C)C[C@H](OC)[C@H](O)[C@@H](C)/C=C(\C)[C@H](OC(N)=O)[C@@H](OC)/C=C\C=C(/C)C(=O)NC(=CC1=O)C2=O [high melt form, 17-allylamino-17-demethoxygeldanamycin] | – | 0.550 | – | –
3 | CC(C)NCC(O)COc1cccc2ccccc12 (centres unmarked) [propranolol] | – | – | – | 16
